Assay results from US9334279B2, “Hepatitis C virus inhibitors” (BRISTOL-MYERS SQUIBB COMPANY, priority 2012, dated 2016).

What was measured:
[1] = system: HCV GT1b(Con1) replicon; experiment: HCV replicon luciferase reporter assay, genotype 1b; format: cell-based, HCV genotype 1b; conditions: Hepatitis C virus, 72 h, HUH-7 cells, Renilla luciferase, 3 days incubation, read-out: LE_1b (EC50, range)
Source text: An HCV GT1b(Con1) replicon cell system was established as described by Lohmann V, Korner F, Koch J, Herian U, Theilmann L, Bartenschlager R., Science 285(5424):110-3 (1999) and modified to introduce a luciferase reporter (Krieger N, Lohmann V, and Bartenschlager R, J. Virol. 75(10):4614-4624 (2001)). cDNA encoding a humanized form of the Renilla luciferase gene, and a linker sequence fused directly to the 3′-end of the luciferase gene were introduced into the replicon construct using an Asc1 restriction site located in core, directly upstream of the neomycin marker gene. The adaptive mutation at position 1179 (serine to isoleucine) was also introduced (Blight K J, Kolykhalov, A A, Rice, C M, Science 290(5498):1972-1974). A stable cell line constitutively expressing this HCV replicon construct was generated by first linearizing plasmid DNAs with ScaI. RNA transcripts were synthesized in vitro using the T7 MegaScript transcription kit (Ambion, Austin, Tex.) according to manufacturer's directions. In vitro transcripts of the cDNA were transfected into the human hepatoma cell line, HUH-7. […] Resulting cell lines were characterized for positive and negative strand RNA production and protein production over time.
(§1) HCV replicon luciferase assays were developed to monitor the inhibitory effects of compounds described in the disclosure on HCV genotypes 1a and 1b viral replication. HUH-7 cells, constitutively expressing the HCV replicon, were grown in Dulbecco's Modified Eagle Media (DMEM) (Gibco-BRL) containing 10% Fetal calf serum (FCS) (Sigma) and 1 mg/mL G418 (Gibco-BRL). Compounds were serially diluted 3 folds in DMSO for a twenty-point titration and subsequently transferred to sterile 384-well tissue-culture treated plates (Corning cat #3571). The plates were then seeded with 50 μL of cells at a density of 3.0×10^3 cells/well in DMEM containing 4% FCS (final DMSO concentration at 0.5%). After 3 days incubation at 37° C., cells were analyzed for Renilla Luciferase activity using the EnduRen as substrate (Promega cat #E6485). The EnduRen substrate was diluted in DMEM and then added to the plates to a final concentration of 7.5 μM. The plates were incubated for 2 hrs at 37° C. and then read immediately for 30 seconds with Viewlux Imager (PerkinElmer) using a luminescence program. To assess cytotoxicity of compounds, CC50 values were generated by multiplexing the EnduRen-containing plates with Cell Titer-Blue (Promega, cat #G8082). Cell-Titer Blue (3 μL) was added to each well and incubated for 8 hrs at 37° C. The fluorescence signal from each well was read, with an excitation wavelength at 525/10 nm and an emission wavelength of 598/10 nm, using the Viewlux Imager.
(§2) The EC50 values for compounds were calculated by using a four-parameter logistic equation: y=A+[…])/(1+((C/x)^D))), where A and B denotes minimal and maximal % inhibition, respectively, C is the EC50, D is the hill slope and x represents compound concentration.

[2] = system: HCV GT1a(H77) replicon; experiment: HCV replicon luciferase reporter assay, genotype 1a; format: cell-based, HCV genotype 1a; conditions: Hepatitis C virus, 72 h, HUH-7 cells, Renilla luciferase, 3 days incubation, read-out: LE_1a (EC50, range)
Source text: A stable HCV GT1a(H77) replicon luciferase reporter cell line (Yanagi M, Purcell RH, Emerson S U, et al. Transcripts from a single full-length cDNA clone of hepatitis C virus are infectious when directly transfected into the liver of a chimpanzee. Proc Natl Acad Sci USA 1997; 94(16):8738-8743) was generated as described previously for the genotype 1b(Con1) replicon luciferase cell line. The replicon construct was modified by introducing mutations into the genes encoding the NS3 helicase domain (proline replaced by leucine at position 1496) and NS5A (serine to isoleucine at position 2204) to improve replication in cell culture.
as §1, §2

Row | SMILES | EC50 [1] | EC50 [2]
1 | Cc1cc(O[C@@H]2C[C@H]3C(=O)N[C@]4(C(=O)NS(=O)(=O)C5(C)CC5)C[C@H]4/C=C\CC[C@H](C)C[C@@H](C)[C@H](NC(=O)OC(C)(C)C(F)(F)F)C(=O)N3C2)cc(-c2cncs2)n1 [Compound 1016, 1,1,1-trifluoro-2-methylpropan-2-yl ((2R,6S,7R,9S,13aS,14aR,16aS,Z)-7,9-dimethyl-2-((2-methyl-6-(thiazol-5-yl)pyridin-4-yl)oxy)-14a-(((1-methylcyclopropyl)sulfonyl)carbamoyl)-5,16-dioxo-1,2,3,5,6,7,8,9,10,11,13a,14,14a,15,16,16a-hexadecahydrocyclopropa[e]pyrrolo[1,2-a][1,4]diazacyclopentadecin-6-yl)carbamate] | 35 to 359 nM | 35 to 359 nM
2 | CC(C)Oc1ccc(-c2cc(O[C@@H]3C[C@H]4C(=O)N[C@]5(C(=O)NS(=O)(=O)C6(C)CC6)C[C@H]5/C=C\CC[C@H](C)C[C@@H](C)[C@H](NC(=O)OC(C)(C)C(F)(F)F)C(=O)N4C3)cc(-c3ccccn3)n2)cc1 [Compound 1022, 1,1,1-trifluoro-2-methylpropan-2-yl ((2R,6S,7R,9S,13aS,14aR,16aS,Z)-2-((6-(4-isopropoxyphenyl)-[2,2′-bipyridin]-4-yl)oxy)-7,9-dimethyl-14a-(((1-methylcyclopropyl)sulfonyl)carbamoyl)-5,16-dioxo-1,2,3,5,6,7,8,9,10,11,13a,14,14a,15,16,16a-hexadecahydrocyclopropa[e]pyrrolo[1,2-a][1,4]diazacyclopentadecin-6-yl)carbamate] | 1.01 to 5 nM | 5.01 to 35 nM
3 | CC[C@@H]1O[C@H](C)CC/C=C\[C@@H]2C[C@@]2(C(=O)NS(=O)(=O)C2(C)CC2)NC(=O)[C@@H]2C[C@@H](Oc3cc(-c4ccc(OC(C)C)cc4)nc(-c4nccs4)c3)CN2C(=O)[C@H]1NC(=O)OC1(C(F)(F)F)CCCOC1 (stereo partly drawn) [Compound 1035, 3-(trifluoromethyl)tetrahydro-2H-pyran-3-yl ((2R,6S,7S,9R,13aS,14aR,16aS,Z)-7-ethyl-2-((2-(4-isopropoxyphenyl)-6-(thiazol-2-yl)pyridin-4-yl)oxy)-9-methyl-14a-(((1-methylcyclopropyl)sulfonyl)carbamoyl)-5,16-dioxo-2,3,5,6,7,9,10,11,13a,14,14a,15,16,16a-tetradecahydro-1H-cyclopropa[i]pyrrolo[1,2-e][1,5,8]oxadiazacyclopentadecin-6-yl)carbamate] | 0.51 to 1 nM | 0.51 to 1 nM
4 | C[C@H]1CC/C=C\[C@@H]2C[C@@]2(C(=O)NS(=O)(=O)C2(C)CC2)NC(=O)[C@@H]2C[C@@H](Oc3cc(-c4nccs4)ccn3)CN2C(=O)[C@@H](NC(=O)OC(C)(C)C(F)(F)F)[C@H](C)C1 [Compound 1032, 1,1,1-trifluoro-2-methylpropan-2-yl ((2R,6S,7R,9S,13aS,14aR,16aS,Z)-7,9-dimethyl-14a-(((1-methylcyclopropyl)sulfonyl)carbamoyl)-5,16-dioxo-2-((4-(thiazol-2-yl)pyridin-2-yl)oxy)-1,2,3,5,6,7,8,9,10,11,13a,14,14a,15,16,16a-hexadecahydrocyclopropa[e]pyrrolo[1,2-a][1,4]diazacyclopentadecin-6-yl)carbamate] | 5.01 to 35 nM | 5.01 to 35 nM
5 | CC[C@@H]1C[C@H](C)CC/C=C\[C@@H]2C[C@@]2(C(=O)NS(=O)(=O)C2CC2)NC(=O)[C@@H]2C[C@@H](Oc3cc(OC)nc(-c4nccs4)c3)CN2C(=O)[C@H]1NC(=O)OC(C)(C)C(F)(F)F [Compound 1056, 1,1,1-trifluoro-2-methylpropan-2-yl ((2R,6S,7R,9R,13aS,14aR,16aS,Z)-14a-((cyclopropylsulfonyl)carbamoyl)-7-ethyl-2-((2-methoxy-6-(thiazol-2-yl)pyridin-4-yl)oxy)-9-methyl-5,16-dioxo-1,2,3,5,6,7,8,9,10,11,13a,14,14a,15,16,16a-hexadecahydrocyclopropa[e]pyrrolo[1,2-a][1,4]diazacyclopentadecin-6-yl)carbamate] | 1.01 to 5 nM | 1.01 to 5 nM
6 | C[C@@H]1CC/C=C\[C@@H]2C[C@@]2(C(=O)NS(=O)(=O)C2(C)CC2)NC(=O)[C@@H]2C[C@@H](Oc3cc(-c4cccnc4)nc(-c4nccs4)c3)CN2C(=O)[C@@H](NC(=O)OC2(C(F)(F)F)CCCOC2)[C@H](C)C1 (stereo partly drawn) [Compound 1049, 3-(trifluoromethyl)tetrahydro-2H-pyran-3-yl ((2R,6S,7R,9R,13aS,14aR,16aS,Z)-7,9-dimethyl-14a-(((1-methylcyclopropyl)sulfonyl)carbamoyl)-5,16-dioxo-2-((6-(thiazol-2-yl)-[2,3′-bipyridin]-4-yl)oxy)-1,2,3,5,6,7,8,9,10,11,13a,14,14a,15,16,16a-hexadecahydrocyclopropa[e]pyrrolo[1,2-a][1,4]diazacyclopentadecin-6-yl)carbamate] | 1.01 to 5 nM | 5.01 to 35 nM
7 | CC(C)Oc1ccc(-c2cc(O[C@@H]3C[C@H]4C(=O)N[C@]5(C(=O)NS(=O)(=O)C6(C)CC6)C[C@H]5/C=C\CC[C@H](C)C[C@@H](C)[C@H](NC(=O)OC(C)(C)C(F)(F)F)C(=O)N4C3)cc(-n3cccn3)n2)cc1 [Compound 1014, 1,1,1-trifluoro-2-methylpropan-2-yl ((2R,6S,7R,9S,13aS,14aR,16aS,Z)-2-((2-(4-isopropoxyphenyl)-6-(1H-pyrazol-1-yl)pyridin-4-yl)oxy)-7,9-dimethyl-14a-(((1-methylcyclopropyl)sulfonyl)carbamoyl)-5,16-dioxo-1,2,3,5,6,7,8,9,10,11,13a,14,14a,15,16,16a-hexadecahydrocyclopropa[e]pyrrolo[1,2-a][1,4]diazacyclopentadecin-6-yl)carbamate] | 5.01 to 35 nM | 35 to 359 nM
8 | CC[C@@H]1O[C@H](C)CC/C=C\[C@@H]2C[C@@]2(C(=O)NS(=O)(=O)C2(C)CC2)NC(=O)[C@@H]2C[C@@H](Oc3cc(-c4ccc(OC(C)C)cc4)nc(-c4cscn4)c3)CN2C(=O)[C@H]1NC(=O)OC1(C(F)(F)F)CCCOC1 (stereo partly drawn) [Compound 1036, 3-(trifluoromethyl)tetrahydro-2H-pyran-3-yl ((2R,6S,7S,9R,13aS,14aR,16aS,Z)-7-ethyl-2-((2-(4-isopropoxyphenyl)-6-(thiazol-4-yl)pyridin-4-yl)oxy)-9-methyl-14a-(((1-methylcyclopropyl)sulfonyl)carbamoyl)-5,16-dioxo-2,3,5,6,7,9,10,11,13a,14,14a,15,16,16a-tetradecahydro-1H-cyclopropa[i]pyrrolo[1,2-e][1,5,8]oxadiazacyclopentadecin-6-yl)carbamate] | 0.1 to 0.5 nM | 0.51 to 1 nM
9 | C[C@@H]1CC/C=C\[C@@H]2C[C@@]2(C(=O)NS(=O)(=O)C2(C)CC2)NC(=O)[C@@H]2C[C@@H](Oc3cc(-c4ccccc4)nc(-c4nccs4)c3)CN2C(=O)[C@@H](NC(=O)OC(C)(C)C(F)(F)F)[C@H](C)C1 [Compound 1060, 1,1,1-trifluoro-2-methylpropan-2-yl ((2R,6S,7R,9R,13aS,14aR,16aS,Z)-7,9-dimethyl-14a-(((1-methylcyclopropyl)sulfonyl)carbamoyl)-5,16-dioxo-2-((2-phenyl-6-(thiazol-2-yl)pyridin-4-yl)oxy)-1,2,3,5,6,7,8,9,10,11,13a,14,14a,15,16,16a-hexadecahydrocyclopropa[e]pyrrolo[1,2-a][1,4]diazacyclopentadecin-6-yl)carbamate] | 0.1 to 0.5 nM | 0.51 to 1 nM
